Where a name gives a salt, the structure may show the parent alone. Read-outs that look alike come from different tables or passages of the source.
Tested on: total α-tubulin
Assay: cell-based assay of MT-stabilization: total α-tubulin in QBI293 cell lysates by ELISA
Conditions: QB1293 cells; for fold induction at 1 µM / fold induction at 10 µM: QBI293, 4 h
Description: All test compounds were evaluated in a previously described cell-based assay of MT-stabilization (see Kovalevich, J., et al. (2016) Characterization of Brain-Penetrant Pyrimidine-Containing Molecules with Differential Microtubule-Stabilizing Activities Developed as Potential Therapeutic Agents for Alzheimer's Disease and Related Tauopathies. J Pharmacol Exp Ther 357, 432-450, incorporated herein by reference), in which compound-dependent changes in tubulin polymerization and total tubulin levels were determined after 4 h of incubation of QBI293 cells with 1 and 10 μM compound via quantification of acetylated α-tubulin and total tubulin in cell lysates by ELISA.
Novel C6 nitrile- and alkyne-substituted triazolopyrimidine examples that have improved in vitro activity relative to previously described examples, with the general structure depicted in Formula I. The activity of the novel C6-nitrile substituted compounds were tested in a previously described cellular assay of MT-stabilization (Kovalevich, J., et al. (2016)). As summarized in Table 2. below, eighteen examples were synthesized and tested. In all cases, these compounds were confirmed to be active Class I triazolopyrimidines. […] Table 2 provides fold-changes in acetylated α-tubulin and total α-tubulin levels in QB1293 cells after 4 h incubation with test compounds at either 1 or 10 μM. Data are expressed as the fold-change relative to vehicle-treated cells. *p<0.05 and **p<0.01 by one-way ANOVA.
Compounds produced according to the preceding synthetic schemes were for microtubule stabilization. Fold-changes in acetylated α-tubulin (AcTub) and α-tubulin (α-Tub) levels in QB1293 cells after 4 h incubation with test compounds at either 1 or 10 μM. Reported values for AcTub and α-Tub represent the fold-change over control (DMSO)-treated cells (*p<0.05 and **p<0.01 by one-way ANOVA); numbers in parentheses represent the fold-change of AcTub over positive control-treated cells (i.e., 100 nM of cevipabulin). Changes of +/−15% of control are deemed to be within the day-to-day assay variability and non-significant.

[1] = 4 h incubation, 1 μM compound, relative to vehicle-treated cells, read-out: α-Tub 1 μM (fold-change in total α-tubulin)
[2] = 4 h incubation, 10 μM compound, relative to vehicle-treated cells, read-out: α-Tub 10 μM (fold-change in total α-tubulin)
[3] = 4 h incubation, 1 μM compound, relative to vehicle-treated cells
[4] = Table 4, 4 h, 1 μM, read-out: α-Tub l μM (fold-change over control (DMSO)-treated cells)
[5] = Table 4, 4 h, 10 μM, read-out: α-Tub 10 μM (fold-change over control (DMSO)-treated cells)

Compound: C[C@H](Nc1c(-c2c(F)cc(C#N)cc2F)c(Cl)nc2ncnn12)C(F)(F)F [Compound 19, (S)-4-(5-Chloro-7-((1,1,1-trifluoropropan-2-yl)amino)-[1,2,4]triazolo[1,5-a]pyrimidin-6-yl)-3,5-difluorobenzonitrile]
- fold induction at 1 µM [1]: 0.94 ± 0.02
- fold induction at 10 µM [2]: 0.95 ± 0.05

Compound: C[C@H](Nc1c(-c2ccc(C#N)cc2F)c(Cl)nc2ncnn12)C(F)(F)F [Compound 61, (S)-4-(5-Chloro-7-((1,1,1-trifluoropropan-2-yl)amino)-[1,2,4]triazolo[1,5-a]pyrimidin-6-yl)-3-fluorobenzonitrile]
- fold induction at 1 µM [1]: 1
- fold induction at 10 µM [2]: 1

Compound: CC(C)[C@@H](Nc1c(-c2ccc(C#N)cc2F)c(Cl)nc2ncnn12)C(F)(F)F [Compound 63, (R)-4-(5-chloro-7-((1,1,1-trifluoro-3-methylbutan-2-yl)amino)-[1,2,4]triazolo[1,5-a]pyrimidin-6-yl)-3-fluorobenzonitrile]
- fold induction at 1 µM [1]: 0.99
- fold induction at 10 µM [2]: 0.98

Compound: CC(C)[C@@H](C)Nc1c(-c2c(F)cc(C#N)cc2F)c(Cl)nc2ncnn12 [Compound 66, (R)-4-(5-chloro-7-((3-methylbutan-2-yl)amino)-[1,2,4]triazolo[1,5-a]pyrimidin-6-yl)-3,5-difluorobenzonitrile]
- fold induction at 1 µM [1]: 0.93
- fold induction at 10 µM [2]: 0.94

Compound: CC(C)[C@@H](C)Nc1c(-c2ccc(C#N)cc2F)c(Cl)nc2ncnn12 [Compound 68, (R)-4-(5-chloro-7-((3-methylbutan-2-yl)amino)-[1,2,4]triazolo[1,5-a]pyrimidin-6-yl)-3-fluorobenzonitrile]
- α-Tub 1 μM (fold-change in total α-tubulin) (4 h incubation, 1 μM compound, relative to vehicle-treated cells, listed as 52016 (68)): 0.95 +/− 0.02 fold-change
- α-Tub 10 μM (fold-change in total α-tubulin) (4 h incubation, 10 μM compound, relative to vehicle-treated cells, listed as 52016 (68)): 0.92 +/− 0.01 fold-change

Compound: N#Cc1cc(F)c(-c2c(Cl)nc3ncnn3c2N2CCCCCC2)c(F)c1 [Compound 75, 4-(7-(Azepan-1-yl)-5-chloro-[1,2,4]triazolo[1,5-a]pyrimidin-6-yl)-3,5-difluorobenzonitrile]
- fold induction at 1 µM [1]: 0.98 ± 0.03
- fold induction at 10 µM [2]: 0.99

Compound: N#Cc1ccc(-c2c(Cl)nc3ncnn3c2N2CCCCCC2)c(F)c1 [Compound 76, 4-(7-(Azepan-1-yl)-5-chloro-[1,2,4]triazolo[1,5-a]pyrimidin-6-yl)-3-fluorobenzonitrile]
- α-Tub 1 μM (fold-change in total α-tubulin) [3]: 1.04 +/− 0.05 fold-change
- fold induction at 10 µM [2]: 0.99

Compound: N#Cc1cc(F)c(-c2c(Cl)nc3ncnn3c2N2CCCCCCC2)c(F)c1 [Compound 77, 4-(7-(azocan-1-yl)-5-chloro-[1,2,4]triazolo[1,5-a]pyrimidin-6-yl)-3,5-difluorobenzonitrile]
- α-Tub 1 μM (fold-change in total α-tubulin) [3]: 1.01 +/− 0.02 fold-change
- fold induction at 10 µM [2]: 0.99

Compound: C#Cc1cc(F)c(-c2c(Cl)nc3ncnn3c2N[C@H](C)C(C)C)c(F)c1 [TAL-487, (R)-5-chloro-6-(4-ethynyl-2,6-difluorophenyl)-N-(3-methylbutan-2-yl)-[1,2,4]triazolo[1,5-a]pyrimidin-7-amine]
- fold induction at 1 µM [4]: 0.98

Compound: CC(C)[C@@H](C)Nc1c(-c2c(F)cc(C#CCN(C)C)cc2F)c(Cl)nc2ncnn12 [TAL-546, (R)-5-chloro-6-(4-(3-(dimethylamino)prop-1-yn-1-yl)-2,6-difluorophenyl)-N-(3-methylbutan-2-yl)-[1,2,4]triazolo[1,5-a]pyrimidin-7-amine]
- fold induction at 1 µM [4]: 0.98

Compound: C[C@@H](Nc1c(-c2c(F)cc(C#CCCCO)cc2F)c(Cl)nc2ncnn12)C(C)(C)C [TAL-601, (R)-5-(4-(5-chloro-7-((3,3-dimethylbutan-2-yl)amino)-[1,2,4]triazolo[1,5-a]pyrimidin-6-yl)-3,5-difluorophenyl)pent-4-yn-1-ol]
- fold induction at 1 µM [4]: 1.18

Compound: CNCC#Cc1cc(F)c(-c2c(Cl)nc3ncnn3c2N[C@H](C)C(C)C)c(F)c1 [TAL-637, (R)-5-chloro-6-(2,6-difluoro-4-(3-(methylamino)prop-1-yn-1-yl)phenyl)-N-(3-methylbutan-2-yl)-[1,2,4]triazolo[1,5-a]pyrimidin-7-amine hydrochloride]
- fold induction at 1 µM [4]: 0.96
- fold induction at 10 µM [5]: 0.96

Compound: CNCC#Cc1cc(F)c(-c2c(Cl)nc3ncnn3c2N[C@H](C)C(C)(C)C)c(F)c1 [TAL-638, (R)-5-chloro-6-(2,6-difluoro-4-(3-(methylamino)prop-1-yn-1-yl)phenyl)-N-(3,3-dimethylbutan-2-yl)-[1,2,4]triazolo[1,5-a]pyrimidin-7-amine hydrochloride]
- fold induction at 1 µM [4]: 0.93
- fold induction at 10 µM [5]: 1

Compound: C[C@H](Nc1c(-c2c(F)cc(C#CCCO)cc2F)c(Cl)nc2ncnn12)C(F)(F)F [TAL-641, (S)-4-(4-(5-chloro-7-((1,1,1-trifluoropropan-2-yl)amino)-[1,2,4]triazolo[1,5-a]pyrimidin-6-yl)-3,5-difluorophenyl)but-3-yn-1-ol]
- fold induction at 1 µM [4]: 0.98

Compound: C[C@H](Nc1c(-c2c(F)cc(C#CCCCO)cc2F)c(Cl)nc2ncnn12)C(F)(F)F [TAL-642, (S)-5-(4-(5-chloro-7-((1,1,1-trifluoropropan-2-yl)amino)-[1,2,4]triazolo[1,5-a]pyrimidin-6-yl)-3,5-difluorophenyl)pent-4-yn-1-ol]
- fold induction at 1 µM [4]: 0.93
- fold induction at 10 µM [5]: 0.87

Compound: C[C@@H](Nc1c(-c2c(F)cc(C#CCCN(C)C)cc2F)c(Cl)nc2ncnn12)C(C)(C)C [TAL-664, (R)-5-chloro-6-(4-(4-(dimethylamino)but-1-yn-1-yl)-2,6-difluorophenyl)-N-(3,3-dimethylbutan-2-yl)-[1,2,4]triazolo[1,5-a]pyrimidin-7-amine]
- fold induction at 1 µM [4]: 0.88
- fold induction at 10 µM [5]: 0.96

From US20230167121A1, “SUBSTITUTED {1,2,4,} TRIAZOLO{1,5-A} PYRIMIDINE COMPOUNDS AND USE IN STABILIZING MICROTUBULES” (THE TRUSTEES OF THE UNIVERSITY OF PENNSYLVANIA, priority 2020, published 2023)
